From PMC9186362, “Design and biological evaluation of substituted 5,7-dihydro-6H-indolo[2,3-c]quinolin-6-one as novel selective Haspin inhibitors” (Journal of Enzyme Inhibition and Medicinal Chemistry, 2022) come the findings set out here.

Each structure is given as a SMILES string.

The target of one experiment is T1, CHUK (IKK alpha) (Homo sapiens, UniProt O15111).
T1 construct: purchased Life Technologies
The experiment in a line: SelectScreen Adapta. In kind it is biochemical. Conditions: ATP Km, read-out: Percentage of inhibition. The procedure: (§1) We further evaluated the selectivity profile of compound 55 on a larger panel of kinases (SelectScreen Whole Panel, Life Technologies). The inhibition profile of 55, evaluated at 1 μM, is depicted on a dendrogram on Figure 3 where kinases inhibited by a minimum of 80% are shown. A full list of the kinases tested is shown on Table S1 in supplementary information.

The target of another experiment is T2, PI4K2A (PI4K2 alpha) (Homo sapiens, UniProt Q9BTU6).
T2 construct: purchased Life Technologies (SelectScreen Whole Panel)
T2 sequence (Q9BTU6 whole entry): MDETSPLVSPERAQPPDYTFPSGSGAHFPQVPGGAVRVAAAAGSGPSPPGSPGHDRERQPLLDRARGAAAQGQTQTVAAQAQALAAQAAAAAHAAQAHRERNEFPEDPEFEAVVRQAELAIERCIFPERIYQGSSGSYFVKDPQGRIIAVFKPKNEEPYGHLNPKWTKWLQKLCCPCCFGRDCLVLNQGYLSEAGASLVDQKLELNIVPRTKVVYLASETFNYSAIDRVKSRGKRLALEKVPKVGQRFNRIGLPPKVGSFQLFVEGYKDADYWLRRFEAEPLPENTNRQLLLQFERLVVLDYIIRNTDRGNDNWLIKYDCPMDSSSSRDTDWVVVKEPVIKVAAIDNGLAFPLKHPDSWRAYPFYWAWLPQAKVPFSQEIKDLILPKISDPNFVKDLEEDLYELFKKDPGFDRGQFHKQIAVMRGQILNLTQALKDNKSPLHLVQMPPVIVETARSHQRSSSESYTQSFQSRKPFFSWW
The experiment in a line: SelectScreen Adapta. It is filed as biochemical. As to conditions: ATP Km, read-out: Percentage of inhibition. On the procedure:
as §1

The target of another experiment is T3, PIP5K1C (Homo sapiens, UniProt O60331).
T3 construct: purchased Life Technologies (SelectScreen Whole Panel service)
T3 sequence (O60331 whole entry): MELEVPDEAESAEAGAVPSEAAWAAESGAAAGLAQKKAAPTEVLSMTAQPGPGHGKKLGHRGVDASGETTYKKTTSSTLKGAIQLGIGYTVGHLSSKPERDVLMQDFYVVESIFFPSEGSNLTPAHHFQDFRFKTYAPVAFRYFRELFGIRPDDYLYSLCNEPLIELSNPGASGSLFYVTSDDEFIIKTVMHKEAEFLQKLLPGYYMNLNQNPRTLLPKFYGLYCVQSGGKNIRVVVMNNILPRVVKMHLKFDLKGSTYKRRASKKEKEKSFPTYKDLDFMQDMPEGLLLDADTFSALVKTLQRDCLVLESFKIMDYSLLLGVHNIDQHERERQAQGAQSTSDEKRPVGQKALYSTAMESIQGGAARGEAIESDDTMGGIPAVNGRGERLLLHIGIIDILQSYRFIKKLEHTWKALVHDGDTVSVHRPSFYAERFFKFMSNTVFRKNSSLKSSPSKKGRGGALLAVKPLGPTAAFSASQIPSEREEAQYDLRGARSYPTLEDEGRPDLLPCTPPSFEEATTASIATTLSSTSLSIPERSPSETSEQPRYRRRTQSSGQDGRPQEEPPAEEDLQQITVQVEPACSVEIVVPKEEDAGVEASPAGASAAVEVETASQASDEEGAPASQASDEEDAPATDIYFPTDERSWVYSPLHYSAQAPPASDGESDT
Kind of experiment: SelectScreen Adapta. In kind it is biochemical. As to conditions: ATP 10 µM, read-out: Percentage of inhibition. On the procedure:
as §1

Another experiment addresses T4, LRRK2 G2019S FL (Homo sapiens, UniProt Q5S007, G2019S).
T4 construct: LRRK2 G2019S FL; purchased Life Technologies (SelectScreen Whole Panel)
The experiment in a line: SelectScreen Adapta. In kind it is biochemical. As to conditions: ATP Km, read-out: Percentage of inhibition. The procedure:
as §1

The target in a further experiment is T5, PIK3C2G (PI3K-C2 gamma) (Homo sapiens, UniProt O75747).
T5 construct: purchased Life Technologies (SelectScreen Whole Panel service)
Kind of experiment: SelectScreen Adapta. It is filed as biochemical. Conditions: ATP Km, read-out: Percentage of inhibition. On the procedure:
as §1

For the next experiment, the target named is PIK3C2A (PI3K-C2 alpha) (Homo sapiens, UniProt O00443). The experiment in a line: SelectScreen Adapta. In kind it is biochemical. As to conditions: ATP Km, read-out: Percentage of inhibition. The procedure:
as §1

A further experiment concerns U-2 OS cell line. The experiment in a line: Cell viability MTS assay, dose-response. Conditions: Homo sapiens, U2OS; 48 h, MTS assay in triplicate, doses up to 50 µM. It is filed as cell-based. The procedure: (§2) HCT116 cells were cultured in McCoy’s medium. SH-SY5Y, MDA-MB231 and U-2 OS cells were cultured in Dulbecco's modified Eagle's medium (DMEM) and hTERT RPE-1 cells in DMEM:F12 medium. All media were supplemented with 10% foetal calf serum and cells were cultured at 37 °C in a 5% CO2 humidified atmosphere.
(§3) Cell viability was then assessed using the CellTiter96 AQueous cell proliferation assay from Promega according to the manufacturer’s instructions. Each experiment was done in triplicate and EC50 were determined from the dose-response curves according to the signal given by the control (0.1% DMSO) set at 100% viability using Prism GraphPad software.
For orientation: Tetrazolium dyes change colour on reduction, which living cells bring about.

The next experiment deals with RPE1 cell line. The experiment in a line: Cell viability MTS assay, dose-response. In kind it is cell-based. As to conditions: Homo sapiens, RPE-1; 48 h, MTS assay in triplicate, doses up to 50 µM. On the procedure:
as §2, §3

The target in a further experiment is MmCLK1 (Mus musculus, UniProt P22518). Kind of experiment: ADP-Glo kinase assay. It is filed as biochemical, Mus musculus (Mm). The procedure:
(§4) Kinase activities were determined using the ADP-Glo methodology (ADP-Glo Kinase Assay; Promega) according to the assay described by Nguyen et al.[32] except for MmCLK1. The later was assayed in the following buffer: 10 mM MgCl2, 1 mM EGTA, 1 mM DTT, 25 mM Tris-HCl pH 7.5, 50 µg/ml heparin, 0.15 mg/ml BSA, with 0.027 µg/µl of the following peptide: GRSRSRSRSRSR as substrate.
A general note: In ADP-Glo the light output rises with the ADP produced.

The next experiment deals with T6, HsHaspin (Homo sapiens, UniProt Q8TF76).
T6 sequence (Q8TF76 1-798): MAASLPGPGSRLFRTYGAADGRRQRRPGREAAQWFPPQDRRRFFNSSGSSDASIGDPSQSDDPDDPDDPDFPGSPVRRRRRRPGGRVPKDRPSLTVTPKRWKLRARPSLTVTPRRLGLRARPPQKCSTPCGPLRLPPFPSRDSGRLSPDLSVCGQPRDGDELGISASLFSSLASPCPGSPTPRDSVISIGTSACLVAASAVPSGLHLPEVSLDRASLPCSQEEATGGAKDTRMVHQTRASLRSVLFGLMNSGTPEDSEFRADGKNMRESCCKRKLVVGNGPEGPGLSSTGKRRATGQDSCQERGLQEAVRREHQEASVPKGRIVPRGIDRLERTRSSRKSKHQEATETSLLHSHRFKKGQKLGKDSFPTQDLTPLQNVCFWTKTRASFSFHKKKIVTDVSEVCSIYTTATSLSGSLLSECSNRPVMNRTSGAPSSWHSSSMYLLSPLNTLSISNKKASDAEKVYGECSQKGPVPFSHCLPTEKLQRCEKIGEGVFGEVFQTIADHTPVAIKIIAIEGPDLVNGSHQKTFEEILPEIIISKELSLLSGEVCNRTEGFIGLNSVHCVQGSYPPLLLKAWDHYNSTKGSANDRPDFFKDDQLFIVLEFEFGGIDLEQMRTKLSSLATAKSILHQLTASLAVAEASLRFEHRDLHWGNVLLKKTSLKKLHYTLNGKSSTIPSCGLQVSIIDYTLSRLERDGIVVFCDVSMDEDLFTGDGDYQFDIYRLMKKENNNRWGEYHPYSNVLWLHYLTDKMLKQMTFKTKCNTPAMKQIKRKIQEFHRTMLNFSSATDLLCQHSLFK
The experiment in a line: ADP-Glo kinase assay. In kind it is biochemical, Homo sapiens (Hs). The procedure:
as §4

The target of another experiment is HsCdk9/Cyc E (Homo sapiens, UniProt P50750). The experiment in a line: ADP-Glo kinase assay. In kind it is biochemical, Homo sapiens (Hs). As to conditions: mean n = 2, % of maximum activity of DMSO control, read-out: % Residual activity at 1 μM CDK9. On the procedure: as §4
Sequence of HsCdk9/Cyc E (P50750 whole entry): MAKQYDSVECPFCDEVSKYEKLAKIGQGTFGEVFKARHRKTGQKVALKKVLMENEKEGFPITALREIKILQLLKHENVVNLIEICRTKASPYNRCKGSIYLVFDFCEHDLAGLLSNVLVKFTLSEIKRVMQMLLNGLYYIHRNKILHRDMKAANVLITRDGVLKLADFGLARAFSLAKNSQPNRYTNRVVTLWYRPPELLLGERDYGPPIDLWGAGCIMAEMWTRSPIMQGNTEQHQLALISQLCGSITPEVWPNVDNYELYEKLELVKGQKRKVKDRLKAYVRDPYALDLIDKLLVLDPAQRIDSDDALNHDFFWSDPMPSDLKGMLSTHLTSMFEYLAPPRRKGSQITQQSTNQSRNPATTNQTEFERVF
Sequence of HsCdk9/Cyc E (O60563 whole entry partner): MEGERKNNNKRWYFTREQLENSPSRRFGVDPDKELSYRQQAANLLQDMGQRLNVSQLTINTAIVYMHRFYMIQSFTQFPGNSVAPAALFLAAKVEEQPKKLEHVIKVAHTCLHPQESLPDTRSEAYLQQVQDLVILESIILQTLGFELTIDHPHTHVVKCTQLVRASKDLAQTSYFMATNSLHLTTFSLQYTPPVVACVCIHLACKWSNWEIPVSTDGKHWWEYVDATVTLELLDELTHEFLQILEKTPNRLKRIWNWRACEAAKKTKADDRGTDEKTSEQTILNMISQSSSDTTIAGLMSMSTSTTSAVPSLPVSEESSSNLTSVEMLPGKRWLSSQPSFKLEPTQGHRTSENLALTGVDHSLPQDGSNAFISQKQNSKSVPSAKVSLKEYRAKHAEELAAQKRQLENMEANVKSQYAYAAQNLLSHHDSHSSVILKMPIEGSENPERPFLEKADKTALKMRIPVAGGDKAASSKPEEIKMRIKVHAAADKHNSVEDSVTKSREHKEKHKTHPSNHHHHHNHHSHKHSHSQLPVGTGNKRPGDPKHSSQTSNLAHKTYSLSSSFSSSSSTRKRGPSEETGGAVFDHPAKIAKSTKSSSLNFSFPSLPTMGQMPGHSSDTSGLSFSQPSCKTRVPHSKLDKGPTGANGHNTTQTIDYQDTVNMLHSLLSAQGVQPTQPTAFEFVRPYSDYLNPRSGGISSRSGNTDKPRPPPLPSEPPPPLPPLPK
A further experiment concerns the target HsGSK3β (Homo sapiens, UniProt P49841). Kind of experiment: ADP-Glo kinase assay. In kind it is biochemical, Homo sapiens (Hs). As to conditions: mean n = 2, % of maximum activity of DMSO control, read-out: % Residual activity at 1 μM GSK3β. On the procedure: as §4
Another experiment has as its target HsPIM1 (Homo sapiens, UniProt P11309). The experiment in a line: ADP-Glo kinase assay. In kind it is biochemical, Homo sapiens (Hs). As to conditions: mean n = 2, % of maximum activity of DMSO control, read-out: % Residual activity at 1 μM PIM1. The procedure:
as §4

Another experiment deals with HsCdk5/p25 (Homo sapiens, UniProt Q00535). Kind of experiment: ADP-Glo kinase assay. As to conditions: mean n = 2, % of maximum activity of DMSO control, read-out: % Residual activity at 1 μM CDK5. In kind it is biochemical, Homo sapiens (Hs). On the procedure: as §4
Sequence of HsCdk5/p25 (Q00535 whole entry): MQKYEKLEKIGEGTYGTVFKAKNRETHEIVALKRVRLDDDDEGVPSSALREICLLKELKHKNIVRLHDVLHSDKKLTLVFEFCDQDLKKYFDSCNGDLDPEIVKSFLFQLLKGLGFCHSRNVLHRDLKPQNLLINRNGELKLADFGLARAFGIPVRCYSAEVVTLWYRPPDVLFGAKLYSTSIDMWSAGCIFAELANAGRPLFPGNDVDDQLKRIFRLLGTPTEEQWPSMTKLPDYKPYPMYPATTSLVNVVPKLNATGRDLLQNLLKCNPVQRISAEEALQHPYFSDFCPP
Sequence of HsCdk5/p25 (Q15078 99-307 partner limits assumed): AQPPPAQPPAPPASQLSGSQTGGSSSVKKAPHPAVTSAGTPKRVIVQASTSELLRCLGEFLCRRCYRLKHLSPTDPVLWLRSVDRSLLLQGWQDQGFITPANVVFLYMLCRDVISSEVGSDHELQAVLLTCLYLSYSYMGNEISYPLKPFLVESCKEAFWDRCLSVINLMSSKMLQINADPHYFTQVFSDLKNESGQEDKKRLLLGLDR
The target in another experiment is HsCdk2/Cyc A (Homo sapiens, UniProt P24941). The experiment in a line: ADP-Glo kinase assay. In kind it is biochemical, Homo sapiens (Hs). Conditions: mean n = 2, % of maximum activity of DMSO control, read-out: % Residual activity at 1 μM CDK2. The procedure: as §4

Sequence of MmCLK1 (P22518 whole entry): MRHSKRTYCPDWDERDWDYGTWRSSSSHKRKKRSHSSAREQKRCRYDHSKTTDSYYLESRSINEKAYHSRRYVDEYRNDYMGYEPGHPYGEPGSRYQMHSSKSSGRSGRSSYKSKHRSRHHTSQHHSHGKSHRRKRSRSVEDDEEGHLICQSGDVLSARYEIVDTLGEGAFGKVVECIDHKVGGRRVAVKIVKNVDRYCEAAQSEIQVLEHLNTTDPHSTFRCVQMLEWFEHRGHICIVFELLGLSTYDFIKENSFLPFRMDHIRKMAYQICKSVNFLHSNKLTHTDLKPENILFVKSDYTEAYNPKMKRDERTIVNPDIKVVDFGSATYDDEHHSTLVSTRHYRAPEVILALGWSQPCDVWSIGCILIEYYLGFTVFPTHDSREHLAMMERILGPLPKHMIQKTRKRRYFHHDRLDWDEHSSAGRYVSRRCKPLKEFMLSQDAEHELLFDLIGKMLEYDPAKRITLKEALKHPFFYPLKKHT
Sequence of HsPIM1 (P11309 whole entry): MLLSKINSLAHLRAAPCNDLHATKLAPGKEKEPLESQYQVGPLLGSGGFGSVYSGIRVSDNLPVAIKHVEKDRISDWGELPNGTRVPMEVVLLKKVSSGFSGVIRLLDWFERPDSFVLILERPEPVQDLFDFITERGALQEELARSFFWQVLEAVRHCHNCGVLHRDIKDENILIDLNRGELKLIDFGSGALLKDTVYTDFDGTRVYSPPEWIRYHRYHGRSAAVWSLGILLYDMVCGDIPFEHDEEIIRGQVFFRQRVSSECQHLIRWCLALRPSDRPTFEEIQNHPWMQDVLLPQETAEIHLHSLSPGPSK
T1 sequence (O15111 whole entry): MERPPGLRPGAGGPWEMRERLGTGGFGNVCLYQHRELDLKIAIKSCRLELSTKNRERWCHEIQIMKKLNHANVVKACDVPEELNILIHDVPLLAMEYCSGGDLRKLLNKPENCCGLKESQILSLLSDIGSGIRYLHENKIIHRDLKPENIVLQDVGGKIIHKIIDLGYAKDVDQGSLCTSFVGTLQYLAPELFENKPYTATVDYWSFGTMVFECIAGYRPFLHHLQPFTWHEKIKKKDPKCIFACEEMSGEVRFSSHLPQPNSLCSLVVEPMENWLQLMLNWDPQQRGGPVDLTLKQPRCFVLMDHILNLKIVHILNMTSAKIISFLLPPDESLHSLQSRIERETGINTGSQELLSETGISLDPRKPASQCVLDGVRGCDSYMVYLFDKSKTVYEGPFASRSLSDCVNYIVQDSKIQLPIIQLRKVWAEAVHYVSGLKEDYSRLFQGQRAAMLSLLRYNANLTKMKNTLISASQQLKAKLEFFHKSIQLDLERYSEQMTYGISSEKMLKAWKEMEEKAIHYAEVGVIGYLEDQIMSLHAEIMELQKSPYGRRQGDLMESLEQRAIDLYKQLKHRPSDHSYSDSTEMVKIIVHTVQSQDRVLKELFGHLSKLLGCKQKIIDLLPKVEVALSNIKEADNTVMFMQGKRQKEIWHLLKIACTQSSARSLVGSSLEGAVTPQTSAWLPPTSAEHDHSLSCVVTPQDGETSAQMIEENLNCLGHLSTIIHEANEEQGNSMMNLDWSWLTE
Sequence of HsGSK3β (P49841 whole entry): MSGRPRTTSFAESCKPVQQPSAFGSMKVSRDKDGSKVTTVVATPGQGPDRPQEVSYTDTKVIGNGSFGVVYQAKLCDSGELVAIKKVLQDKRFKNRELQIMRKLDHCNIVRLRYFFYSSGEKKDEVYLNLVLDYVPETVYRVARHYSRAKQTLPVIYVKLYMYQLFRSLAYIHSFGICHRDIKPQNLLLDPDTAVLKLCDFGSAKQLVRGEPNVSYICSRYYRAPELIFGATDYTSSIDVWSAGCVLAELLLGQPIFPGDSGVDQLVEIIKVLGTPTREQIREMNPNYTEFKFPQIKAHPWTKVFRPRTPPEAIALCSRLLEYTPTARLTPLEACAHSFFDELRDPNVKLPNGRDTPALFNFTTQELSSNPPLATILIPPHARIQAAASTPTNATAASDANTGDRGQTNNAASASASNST

With `COc1ccc2[nH]c3c(=O)[nH]c4ccc(O)cc4c3c2c1` [Compound 55, 2-Hydroxy-10-methoxy-5,7-dihydro-6H-indolo[2,3-c]quinolin-6-one], the inhibition – broadly, how much of the control response was suppressed – at 1 µM came out at 38% at CHUK (IKK alpha); 1% at PI4K2A (PI4K2 alpha); 49% at PIP5K1C; 98% on LRRK2 G2019S FL; 47% at PIK3C2G (PI3K-C2 gamma); 14% on PIK3C2A (PI3K-C2 alpha). The concentration for a half-maximal effect (EC50) (as a rule, the concentration at which the effect is half-maximal) with U-2 OS cell line was determined as 3400 nM; in the experiment on RPE1 cell line, 10700 nM. Also, the remaining activity at 1 µM at MmCLK1 (1 μM, mean n = 2, % of maximum activity of DMSO control, read-out: % Residual activity at 1 μM CLK1) is 14%; at HsHaspin (1 μM, mean n = 2, % of maximum activity of DMSO control, read-out: % Residual activity at 1 μM Haspin), 0%; on HsCdk9/Cyc E it was 17%; at HsGSK3β, 20%; at HsPIM1 it was 22%; on HsCdk5/p25 it was 53%. Also, the remaining activity at 1 µM on HsCdk2/Cyc A was determined as 38%. The “Selectivity index CLK1/Haspin” value at MmCLK1 (IC50 CLK1/IC50 Haspin) came to 17. The IC50 (as a rule, the point on the concentration scale where inhibition reaches its midpoint) at MmCLK1 (dose-response curve, each point in duplicate, read-out: Kinase inhibition (IC50) CLK1) was found to be 33 nM; at HsHaspin (dose-response curve, each point in duplicate, read-out: Kinase inhibition (IC50) Haspin), 2 nM.
